According to patent US20040224958A1, “Pyridopyrimidinone derivatives for treatment of neurodegenerative disease” (priority 2000, published 2004):

Tests used:
[1] = target: Cdk5/p25 (Homo sapiens, UniProt Q00535); assay: Cyclin-Dependent Kinase 5 High Throughput Screening (cdk5-HTS) Assay; type: biochemical; settings: high throughput screen
Method in brief: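 Cdk5/p25 (1.0 μg/mL) phosphorylates GST-RbCOOH (20 μg/mL) in 50 mM Tris pH 7.4 with 10 mM MgCl2 and 20 μM ATP spiked with [γ33P]ATP, 30 min at room temperature. After EDTA stop, substrate captured on glutathione-coated plates; 33P incorporation counted by scintillation; IC50 determined.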

[2] = target: cdc2/cyclinB (Homo sapiens, UniProt P06493); assay: Cyclin-Dependent Kinase Assay cdc2/cyclinB
[3] = target: cdk2/cyclinA (Homo sapiens, UniProt P24941); assay: Cyclin-Dependent Kinase Assay cdk2/cyclinA; settings: cdk2/A IC50
[4] = target: cdk4/D (Homo sapiens, UniProt P11802); assay: Cyclin-Dependent Kinase 4 (cdk4) Assay; type: biochemical; settings: read-out: cdk4/D IC50
[5] = target: cdk2/cyclinE (Homo sapiens, UniProt P24941); assay: Cyclin-Dependent Kinase Assay cdk2/cyclinE; settings: cdk2/E IC50

Sequence of cdc2/cyclinB (P06493 whole entry): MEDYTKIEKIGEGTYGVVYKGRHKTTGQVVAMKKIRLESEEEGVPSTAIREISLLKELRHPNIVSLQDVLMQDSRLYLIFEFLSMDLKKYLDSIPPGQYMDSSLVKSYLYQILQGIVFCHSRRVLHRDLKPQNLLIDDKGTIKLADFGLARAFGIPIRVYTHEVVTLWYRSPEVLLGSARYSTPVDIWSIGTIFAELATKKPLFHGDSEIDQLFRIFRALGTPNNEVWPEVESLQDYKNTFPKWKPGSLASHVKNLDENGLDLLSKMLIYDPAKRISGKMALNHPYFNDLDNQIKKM
Sequence of cdc2/cyclinB (P14635 whole entry, further chain): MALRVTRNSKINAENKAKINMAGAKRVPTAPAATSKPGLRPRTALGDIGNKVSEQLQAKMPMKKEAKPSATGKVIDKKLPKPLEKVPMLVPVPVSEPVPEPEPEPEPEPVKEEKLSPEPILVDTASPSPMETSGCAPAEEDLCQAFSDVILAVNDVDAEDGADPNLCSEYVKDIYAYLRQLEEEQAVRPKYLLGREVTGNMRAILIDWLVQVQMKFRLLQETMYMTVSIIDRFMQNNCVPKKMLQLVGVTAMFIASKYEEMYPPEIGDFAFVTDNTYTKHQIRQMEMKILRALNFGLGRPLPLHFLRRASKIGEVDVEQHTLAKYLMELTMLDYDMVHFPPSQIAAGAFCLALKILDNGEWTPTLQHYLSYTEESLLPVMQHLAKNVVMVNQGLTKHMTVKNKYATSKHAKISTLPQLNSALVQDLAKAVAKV
Sequence of cdk4/D (P11802 whole entry): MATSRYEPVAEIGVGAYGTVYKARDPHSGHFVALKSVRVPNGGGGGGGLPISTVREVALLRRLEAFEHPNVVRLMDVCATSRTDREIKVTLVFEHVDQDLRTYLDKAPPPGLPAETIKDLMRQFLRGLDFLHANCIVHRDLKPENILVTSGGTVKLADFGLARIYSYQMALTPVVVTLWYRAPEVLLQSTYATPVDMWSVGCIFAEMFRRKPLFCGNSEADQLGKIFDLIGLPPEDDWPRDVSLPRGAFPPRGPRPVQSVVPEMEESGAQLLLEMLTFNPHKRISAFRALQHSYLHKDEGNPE
Sequence of cdk4/D (P24385 whole entry, further chain): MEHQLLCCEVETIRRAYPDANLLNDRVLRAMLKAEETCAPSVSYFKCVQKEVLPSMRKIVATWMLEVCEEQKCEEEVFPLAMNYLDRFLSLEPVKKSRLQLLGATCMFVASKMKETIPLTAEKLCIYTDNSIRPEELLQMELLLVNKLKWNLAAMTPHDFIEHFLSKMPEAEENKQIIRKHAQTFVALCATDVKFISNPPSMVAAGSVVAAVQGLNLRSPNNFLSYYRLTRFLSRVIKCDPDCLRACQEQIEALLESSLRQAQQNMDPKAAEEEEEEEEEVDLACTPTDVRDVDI

IC50 [1] | IC50 [2] | IC50 [3] | IC50 [4] | IC50 [5] | Structure (SMILES)
615 nM | 1430 nM | 2000 nM | 1350 nM | 917 nM | Cn1c(=O)ccc2cnc(Nc3ccc4[nH]ccc4c3)nc21 [Example 614, 2-(1H-Indol-5-ylamino)-8-methyl-8H-pyrido[2,3-d]pyrimidin-7-one]
260 nM | 710 nM | 670 nM | 2600 nM | 100 nM | O=c1ccc2cnc(Nc3cc(F)c(F)c(F)c3)nc2n1CC1CC1 [Example 588, 8-Cyclopropylmethyl-2-(3,4,5-trifluoro-phenylamino)-8H-pyrido[2,3-d]pyrimidin-7-one]
50 nM | 170 nM | 430 nM | 680 nM | 63 nM | O=c1ccc2cnc(Nc3ccc(F)c(C(F)(F)F)c3)nc2n1CC1CC1 [Example 570, 8-Cyclopropylmethyl-2-(4-fluoro-3-trifluoromethyl-phenylamino)-8H-pyrido[2,3-d]pyrimidin-7-one]
215 nM | 955 nM | 380 nM | 1110 nM | 690 nM | CC(C)n1c(=O)ccc2cnc(Nc3ccc4cn[nH]c4c3)nc21 [Example 438, 2-(1H-Indazol-6-ylamino)-8-isopropyl-8H-pyrido[2,3-d]pyrimidin-7-one]
49 nM | 340 nM | 530 nM | 120 nM | 220 nM | CCC(C)n1c(=O)ccc2cnc(Nc3ccc(N(C)C(C)=O)cc3)nc21 (stereo not shown) [Example 471, N-[4-(8-sec-Butyl-7-oxo-7,8-dihydro-pyrido[2,3-d]pyrimidin-2-ylamino)-phenyl]-N-methyl-acetamide]
32 nM | 82.5 nM | 35.5 nM | 31 nM | 24 nM | O=c1ccc2cnc(Nc3ccc4cn[nH]c4c3)nc2n1C1CCCC1 [Example 529, 8-Cyclopentyl-2-(1H-indazol-6-ylamino)-8H-pyrido[2,3-d]pyrimidin-7-one]
54 nM | 260 nM | 260 nM | 44 nM | 99.3 nM | CC(C)n1c(=O)ccc2cnc(Nc3ccc4[nH]ccc4c3)nc21 [Example 409, 2-(1H-Indol-5-ylamino)-8-isopropyl-8H-pyrido[2,3-d]pyrimidin-7-one]
13 nM | 190 nM | 150 nM | 130 nM | 110 nM | Cc1cc(Nc2ncc3ccc(=O)n(C(C)C)c3n2)ccc1F [Example 408, 2-(4-Fluoro-3-methyl-phenylamino)-8-isopropyl-8H1-pyrido[2,3-d]pyrimidin-7-one]
170 nM | 120 nM | 170 nM | 490 nM | 200 nM | Cc1cc(Nc2ncc3ccc(=O)n(CC4CC4)c3n2)cc(C)c1O [Example 586, 8-Cyclopropylmethyl-2-(4-hydroxy-3,5-dimethyl-phenylamino)-8H-pyrido[2,3-d]pyrimidin-7-one]
290 nM | 620 nM | 650 nM | 2000 nM | 450 nM | CCC(CC)n1c(=O)ccc2cnc(Nc3ccc(O)c(C(=O)O)c3)nc21 [Example 524, 5-[8-(1-Ethyl-propyl)-7-oxo-7,8-dihydro-pyrido[2,3-d]pyrimidin-2-ylamino]-2-hydroxy-benzoic acid]
201 nM | 313 nM | 1100 nM | 510 nM | 228 nM | CCCCn1c(=O)ccc2cnc(Nc3ccc(C)c(C)c3)nc21 [Example 377, 8-Butyl-2-(3,4-dimethyl-phenylamino)-8H-pyrido[2,3-d]pyrimidin-7-one]
6.1 nM | 67 nM | 150 nM | 110 nM | 50 nM | CCC(C)n1c(=O)ccc2cnc(Nc3ccc4c(c3)CCCC4=O)nc21 (stereo not shown) [Example 470, 8-sec-Butyl-2-(5-oxo-5,6,7,8-tetrahydro-naphthalen-2-ylamino)-8H-pyrido[2,3-d]pyrimidin-7-one]
26 nM | 190 nM | 240 nM | 98 nM | 64 nM | CCC(CC)n1c(=O)ccc2cnc(Nc3ccc(F)c(F)c3)nc21 [Example 509, 2-(3,4-Difluoro-phenylamino)-8-(I-ethyl-propyl)-8H-pyrido[2,3-d]pyrimidin-7-one]
230 nM | 430 nM | 310 nM | 200 nM | 71 nM | Cc1ccc(Nc2ncc3ccc(=O)n(CC4CC4)c3n2)cc1NS(C)(=O)=O [Example 592, N-[5-(8-Cyclopropylmethyl-7-oxo-7,8-dihydro-pyrido[2,3-d]pyrimidin-2-ylamino)-2-methyl-phenyl]-methanesulfonamide]
66 nM | 250 nM | 330 nM | 150 nM | 140 nM | O=c1ccc2cnc(Nc3ccc(C(F)(F)F)cc3)nc2n1C1CCCC1 [Example 533, 8-Cyclopentyl-2-(4-trifluoromethyl-phenylamino)-81H-pyrido[2,3-d]pyrimidin-7-one]
980 nM | 2200 nM | 1500 nM | 2900 nM | 1600 nM | CCn1c(=O)ccc2cnc(Nc3ccc(C#N)cc3)nc21 [Example 304, 4-(8-Ethyl-7-oxo-7,8-dihydro-pyrido[2,3-d]pyrimidin-2-ylamino)-benzonitrile]
50.5 nM | 98.5 nM | 170 nM | 110 nM | 463 nM | CCC(C)n1c(=O)ccc2cnc(Nc3ccc(OC)cc3)nc21 (stereo not shown) [Example 455, 8-sec-Butyl-2-(4-methoxy-phenylamino)-8H-pyrido[2,3-d]pyrimidin-7-one]
21 nM | 160 nM | 590 nM | 140 nM | 160 nM | Cc1ccc(Nc2ncc3ccc(=O)n(C(C)C)c3n2)cc1I [Example 427, 2-(3-Iodo-4-methyl-phenylamino)-8-isopropyl-8H-pyrido[2,3-d]pyrimidin-7-one]
23 nM | 73 nM | 230 nM | 93 nM | 39 nM | CCCCn1c(=O)ccc2cnc(Nc3ccc4c(c3)CCCC4=O)nc21 [Example 403, 8-Butyl-2-(5-oxo-5,6,7,8-tetrahydro-naphthalen-2-ylamino)-8H-pyrido[2,3-d]pyrimidin-7-one]
23 nM | 85 nM | 350 nM | 120 nM | 82 nM | Cc1cc(C)cc(Nc2ncc3ccc(=O)n(C4CCCC4)c3n2)c1 [Example 544, 8-Cyclopentyl-2-(3,5-dimethyl-phenylamino)-8H-pyrido[2,3-d]pyrimidin-7-one]
83 nM | 700 nM | 920 nM | 1900 nM | 3900 nM | CC(C)n1c(=O)ccc2cnc(Nc3ccc(Cl)c(C(F)(F)F)c3)nc21 [Example 421, 2-(4-Chloro-3-trifluoromethyl-phenylamino)-8-isopropyl-8H-pyrido[2,3-d]pyrimidin-7-one]
8.8 nM | 76 nM | 260 nM | 100 nM | 56 nM | CCC(C)n1c(=O)ccc2cnc(Nc3ccc(C)c(I)c3)nc21 (stereo not shown) [Example 465]
110 nM | 140 nM | 360 nM | 760 nM | 77 nM | CCCCn1c(=O)ccc2cnc(Nc3ccc(F)c(C)c3)nc21 [Example 392, 8-Butyl-2-(4-fluoro-3-methyl-phenylamino)-8H-pyrido[2,3-d]pyrimidin-7-one]
290 nM | 2100 nM | 1600 nM | 360 nM | 700 nM | CCCn1c(=O)ccc2cnc(Nc3ccc4c(c3)CCN4)nc21 [Example 357, 2-(2,3-Dihydro-1H-indol-5-ylamino)-8-propyl-8H-pyrido[2,3-d]pyrimidin-7-one]
150 nM | 360 nM | 340 nM | 120 nM | 120 nM | CCCCn1c(=O)ccc2cnc(Nc3ccc(OC)c(F)c3)nc21 [Example 394, 8-Butyl-2-(3-fluoro-4-methoxy-phenylamino)-8H-pyrido[2,3-d]pyrimidin-7-one]
110 nM | 200 nM | 690 nM | 310 nM | 100 nM | CCCCn1c(=O)ccc2cnc(Nc3ccc(Cl)c(C)c3)nc21 [Example 388, 8-Butyl-2-(4-chloro-3-methyl-phenylamino)-8H-pyrido[2,3-d]pyrimidin-7-one]
12.3 nM | 49.5 nM | 25.5 nM | 42 nM | 8.5 nM | O=c1ccc2cnc(Nc3ccc4[nH]nnc4c3)nc2n1C1CCCC1 [Example 537, 2-(1H-Benzotriazol-5-ylamino)-8-cyclopentyl-8H-pyrido[2,3-d]pyrimidin-7-one]
190 nM | 430 nM | 530 nM | 120 nM | 84 nM | O=c1ccc2cnc(Nc3cc([N+](=O)[O-])ccc3F)nc2n1CC1CC1 [Example 572, 8-Cyclopropylmethyl-2-(2-fluoro-5-nitro-phenylamino)-8H-pyrido[2,3-d]pyrimidin-7-one]
9.6 nM | 90 nM | 240 nM | 30 nM | 46 nM | CCC(C)n1c(=O)ccc2cnc(Nc3cccc(S(N)(=O)=O)c3)nc21 (stereo not shown) [Example 469, 3-(8-sec-Butyl-7-oxo-7,8-dihydro-pyrido[2,3-d]pyrimidin-2-ylamino)-benzenesulfonamide]
